Source: patent WO2018160794A1, “Epha2-targeted docetaxel -generating liposomes in combination with an agent that impedes regulatory t cell activity for treating cancer” (dated 2018)

Assays:
EMT-6 [1] = assay: In vivo tumor growth inhibition in EMT-6 model versus dose-dense and standard docetaxel (Example 6); set-up: species or system mouse; settings: EMT-6, Example 6; docetaxel 3.33 mg/kg three times a week (DTX-DD); Figure 7A
MC38 = assay: In vivo antitumor efficacy in MC38 colon cancer model (Example 8); set-up: species or system mouse; settings: MC38, C57BL6/J mice; days after treatment initiation; Figure 9B
EMT-6 [2] = assay: In vivo antitumor efficacy in EMT-6 model versus free docetaxel (Example 3); set-up: species or system mouse; settings: EMT-6, Example 3
T cells in EMT-6 tumors = assay: FACS of immune cell infiltrate in EMT-6 tumors versus dose-dense and standard docetaxel (Example 6); type: in vivo, mouse; settings: EMT-6, Example 6

## CC(=O)O[C@@]12CO[C@@H]1C[C@H](O)[C@@]1(C)C(=O)[C@H](O)C3=C(C)[C@@H](OC(=O)[C@H](O)[C@@H](NC(=O)OC(C)(C)C)c4ccccc4)C[C@@](O)([C@@H](OC(=O)c4ccccc4)[C@H]21)C3(C)C [docetaxel]
EMT-6 [1]
  tumor growth inhibition (in words): improved growth inhibition relative to DTX-MTD, but it did not recapitulate the inhibition observed in 46scFv-ILs-DTXp3 treatment
MC38
  median survival: 16 days
EMT-6 [2]
  tumor regression: no tumor regression
EMT-6 [2]; monotherapy, PD-1 10 mg/kg twice weekly, docetaxel 10 mg/kg q1w
  growth arrest: minimal growth arrest
T cells in EMT-6 tumors; dose-dense docetaxel (DTX-DD), 3.33 mg/kg three times a week
  effect on intratumoral immune cell populations: Neither the dose-dense (DTX-DD) nor the weekly (DTX-MTD) docetaxel treatment groups were observed to affect these intratumoral immune cell populations
T cells in EMT-6 tumors; weekly docetaxel (DTX-MTD), 10 mg/kg once a week
  effect on intratumoral immune cell populations: Neither the dose-dense (DTX-DD) nor the weekly (DTX-MTD) docetaxel treatment groups were observed to affect these intratumoral immune cell populations
